Measured values as given in article PMC10287695, “Non-covalent inhibitors of thioredoxin glutathione reductase with schistosomicidal activity in vivo” (Nature Communications, 2023).
Where “and” joins values, the source holds several entries; their conditions need not be identical. Equal values may be shown once.

Legend:
[1] = target: T1, TGR (Schistosoma mansoni, UniProt Q962Y6); assay: Reversibility by jump dilution; format: biochemical
T1 construct: made in house
T1 sequence (Q962Y6 1-598): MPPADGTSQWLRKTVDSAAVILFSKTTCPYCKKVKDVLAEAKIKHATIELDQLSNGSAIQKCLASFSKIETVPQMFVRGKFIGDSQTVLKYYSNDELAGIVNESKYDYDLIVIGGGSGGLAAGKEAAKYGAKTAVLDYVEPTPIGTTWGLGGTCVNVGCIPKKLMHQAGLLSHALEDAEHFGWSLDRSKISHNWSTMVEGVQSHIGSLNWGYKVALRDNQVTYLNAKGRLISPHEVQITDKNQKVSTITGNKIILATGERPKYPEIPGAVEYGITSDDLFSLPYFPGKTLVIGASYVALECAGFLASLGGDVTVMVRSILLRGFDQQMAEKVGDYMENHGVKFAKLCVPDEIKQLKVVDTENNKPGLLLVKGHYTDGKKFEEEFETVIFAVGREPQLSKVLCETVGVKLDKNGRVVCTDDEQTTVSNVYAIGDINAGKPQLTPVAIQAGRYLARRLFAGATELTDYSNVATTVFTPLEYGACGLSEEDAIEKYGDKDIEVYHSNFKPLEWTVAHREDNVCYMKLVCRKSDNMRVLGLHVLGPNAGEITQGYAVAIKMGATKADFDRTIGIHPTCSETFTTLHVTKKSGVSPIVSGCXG
Procedure: A reaction of 370 nM TGR, 100 µM NADPH, and 250 µM inhibitor was incubated for 15 min at room temperature. A 100x dilution of the reaction was made and the activity was determined immediately and after 60 min.

[2] = target: T2, TGR (Schistosoma mansoni, UniProt Q962Y6, X597U); assay: NADPH consumption (oxidase activity); format: biochemical, S. mansoni
T2 construct: made in house
Procedure: TRi-1, Stattic (both at 50 µM) and AF (20 µM) were incubated with 1 ml of 500 nM TGR and 100 µM NADPH in TGR reaction buffer for 30 min. The samples were desalted using a Zeba spin desalting column (Thermo Fisher Scientific) and 100 µl of the desalted sample was combined with 100 µl of 100 µM NADPH. NADPH consumption was monitored at 340 nm in triplicate. Compounds 1, 4, 6, and 7 (50 µM) were tested in the same fashion without the desalting step and with a first incubation step of 30 min for 6 and 7 and 2 h for 1 and 4.

[3] = target: T2, TGR; assay: Superoxide production (pyrogallol red); format: biochemical, S. mansoni; conditions: replicates
Procedure: The production of superoxide by TGR was determined by monitoring reaction of superoxide with pyrogallol red[80]. Briefly, a 1 ml reaction mix (500 nM TGR, 100 µM NADPH, and 20–50 µM inhibitor) was incubated at room temperature for 30 min for fast inhibitors, or 2 h for slow inhibitors. For irreversible inhibitor controls TRi-1 (synthesized in house as reported[45]), Stattic (Cayman Chemical), and AF (Cayman Chemical), the samples were desalted using a Zeba spin desalting column. 100 µL of sample was combined with pyrogallol buffer with and without superoxide dismutase (SOD) (50 µM pyrogallol red, 300 µM NADPH; ± 10 units SOD). The reaction was measured at A340 and A540 simultaneously for 2 h.

[4] = Reactivity with GSH or N-Boc protected methyl ester of selenocysteine (LCMS); format: physicochemical; conditions: up to 120 h
Procedure: Dimethyl bis(N-tert-butoxycarbonyl)-L-selenocystine was synthesized as reported previously. (N-tert-butoxycarbonyl)-L-selenocysteine methyl ester was prepared in situ[86] in methanol or phosphate buffer. Compound 2 was added to the solution of (N-tert-butoxycarbonyl)-L-selenocysteine methyl ester in either methanol or phosphate buffer and incubated for 40 min, 24 h, and 120 h under N2 gas balloon. Additional amounts of NaBH4 were added at 12 h and 96 h to maintain the reducing conditions. Aliquots taken from methanol solution at each of the time points were concentrated in vacuo, mixed with water, and extracted with ethyl acetate. The organic layer was separated, concentrated in vacuo, re-dissolved in methanol and analyzed by LCMS. Aliquots taken from the phosphate buffer solution were extracted with ethyl acetate. The resulting organic layer was separated and concentrated in vacuo. The residue was re-dissolved in methanol and analyzed by LCMS. […] No additional spots were detected by TLC as well.
Covalent TGR inhibitor TRi-1 was used as a positive control for the reaction with (N-tert-butoxycarbonyl)-L-selenocysteine methyl ester. The reactivity of TRi-1 was tested similarly as described above for compound 2.

[5] = target: T3, S. mansoni TGR (Schistosoma mansoni, UniProt Q962Y6); assay: S. mansoni TGR enzyme inhibition (DTNB reduction); format: biochemical
T3 construct: made in house
T3 sequence (Q962Y6 1-598): T1 sequence (Q962Y6 1-598)
Procedure: Recombinant TGR, human TrxR1, B. malayi (Bm)TrxR and human GR proteins were expressed and purified as described[20],[69],[79]. The codon optimized sequence for P. falciparum (PfTrxR, https://www.ncbi.nlm.nih.gov/protein/CAA60574.1/) with an N-terminal 6-His tag was synthesized and inserted into pET15b (GenScript) and expressed in BL21 (DE3) cells and purified as described for human GR[20]. TGR and TrxR enzyme inhibition assays were performed in triplicate at 25 °C as described[20] in 0.1 M potassium phosphate (pH 7.4), 10 mM EDTA, 100 µM NADPH and 0.01% Tween-20. […] The reaction was started with addition of an equal volume of DTNB (6 mM) and NADPH (100 µM) and the increase in A412 during the first 3 min was recorded. […] The reaction was preincubated for 15 min. Activity was initiated with the addition of 1 mM GSSG and 100 μM NADPH and initial rates of NADPH oxidation were monitored at 340 nm. The reactions were done in triplicate. The IC50 was calculated in GraphPad Prism.

[6] = target: T4, recombinant TGR (Schistosoma mansoni, UniProt Q962Y6); assay: Photolabeling of TGR with PRP; format: binding, S. mansoni; conditions: for 800 nm Normalized Signal: TGR 1 µM
T4 construct: made in house
Procedure: […] The photocrosslinking and CuAAC click biotinylation were performed as previously described by our group. After resolving samples on SDS-PAGE and nitrocellulose membrane transfer, western blot normalization was performed with the Licor Revert™ 700 Total Protein Stain Kit as described in their protocol. Protein was finally imaged with the Licor IRDye® 800CW streptavidin on the Odyssey Sa imager.

[7] = target: S. mansoni histone deacetylase 8 (Schistosoma mansoni, UniProt A5H660); assay: Photolabeling of control protein SmHDAC8 with PRP; format: binding; conditions: for 800 nm Normalized Signal: SmHDAC8 1 µM
Sequence of S. mansoni histone deacetylase 8 (A5H660 entry or part of it): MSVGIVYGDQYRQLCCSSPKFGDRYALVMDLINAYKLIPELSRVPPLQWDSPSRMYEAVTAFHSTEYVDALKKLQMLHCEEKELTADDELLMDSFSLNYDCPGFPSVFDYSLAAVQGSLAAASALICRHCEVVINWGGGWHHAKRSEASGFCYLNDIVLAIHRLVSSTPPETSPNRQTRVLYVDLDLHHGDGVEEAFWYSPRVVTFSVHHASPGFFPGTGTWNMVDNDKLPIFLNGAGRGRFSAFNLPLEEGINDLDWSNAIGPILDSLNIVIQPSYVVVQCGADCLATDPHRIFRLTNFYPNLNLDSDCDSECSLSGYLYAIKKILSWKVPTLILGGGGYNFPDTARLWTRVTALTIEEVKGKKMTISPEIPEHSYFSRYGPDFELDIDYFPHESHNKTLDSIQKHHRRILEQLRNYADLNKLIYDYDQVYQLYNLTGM
Procedure: TGR (1 µM) or SmHDAC8 (1 µM) was incubated at concentrations of either 5 or 50 µM PRP with or without 100 µM NADPH totaling eight samples. The photocrosslinking and CuAAC click biotinylation were performed as previously described by our group. After resolving samples on SDS-PAGE and nitrocellulose membrane transfer, western blot normalization was performed with the Licor Revert™ 700 Total Protein Stain Kit as described in their protocol. Protein was finally imaged with the Licor IRDye® 800CW streptavidin on the Odyssey Sa imager.

[8] = D0: diluted 1:100, activity determined immediately, list for plotting
[9] = D60: diluted 1:100, activity determined after 60 min, list for plotting

In the case of `COc1ccc([N+](=O)[O-])c(S(=O)(=O)c2ccc(Cl)cc2)n1` [TRi-1, reference compound], the “reversibility of TGR inhibition” value ([1]; 250 µM inhibitor, 100-fold jump dilution) is reported as “irreversible”, the “% Activity (ID list), D0” value [1, 8] is reported as -1.4% and -0.0373% and 0.6% and the “% Inhibition (ID list), D0” value [1, 8] is reported as 101.4% and 100.0% and 99.4%. The “% Activity (ID list), D60” value [1, 9] was 2.1% and 1.1% and 1.2%, the “% Inhibition (ID list), D60” value [1, 9] was 97.9% and 98.9% and 98.8% and the “% Activity, 0 min” value ([1]; [0, D0]: 15 min preincubation inhibitor + TGR + NADPH, diluted 1:100, then activity determined immediately, relative to DMSO) was -1.437% and -0.03726% and 0.6084%. For the same compound, the “Inhibitor (rate), 60 min” value ([1]; [60, D60]: 15 min preincubation inhibitor + TGR + NADPH, diluted 1:100, then activity determined after 60 min, raw rate) was 0.001123 and 0.0005896 and 0.0006645, the “% Activity, 60 min” value ([1]; [60, D60]: 15 min preincubation inhibitor + TGR + NADPH, diluted 1:100, then activity determined after 60 min, relative to DMSO) was 2.121% and 1.115% and 1.1607% and the “Inhibitor (rate), -15” value ([1]; [-15]: 15 min preincubation inhibitor + TGR + NADPH, then activity determined, raw rate, replicates) was 0.0012 and -0.0009 and -0.001. The “% Activity, -15” value ([1]; [-15]: 15 min preincubation inhibitor + TGR + NADPH, then activity determined, relative to DMSO, replicates) was 2.39% and -1.793% and -3.401%, the “% Inhibition (ID list)” value ([1]; before dilution (-15), list for plotting) was 101.0% and 101.8% and 97.0% and the “NADPH consumption by TGR after exposure” value [2] was “converted TGR to a pro-oxidant enzyme”. The “NADPH consumption (rate/ΔOD340)” value ([2]; replicates) was -0.001513 and -0.00148 and -0.001553, the “Superoxide production, Pyrogallol red consumption monitored ΔA540” value ([3]; condition not given) was -0.002664 and -0.002628 and -0.002752 and the “Superoxide production, Pyrogallol red consumption monitored ΔA540” value ([3]; second of the two columns per substance (condition not given)) was -5.614e-5 and -5.998e-5. The “reaction with thiol or selenol groups in GSH or protected selenocysteine” value [4] was “An adduct between TRi-1 was detected”.

Compound `C#CCN(CCCNC(=O)c1c(F)c(F)c(N=[N+]=[N-])c(F)c1F)[C@@H]1C[C@@H]2C[C@H]([C@H]1C)C2(C)C` [PRP] has an IC50 ([5]; 15 min preincubation (enzyme + 100 µM NADPH + compound)) of 34.9 ± 6.11 µM, an inhibition at 15 µM ([5]; read-out: TGR % inhibition) of 30.8% and an inhibition at 30 µM ([5]; read-out: TGR % inhibition) of 47.5%. For the same compound, the inhibition at 66.7 µM ([5]; read-out: TGR % inhibition) was 55.1%, the “labeling of TGR with NADPH versus without NADPH” value ([6]; 5 and 50 μM PRP) was “more effective” and the “800 nm Normalized Signal” value ([6]; PRP 2 µM, NADPH 0 µM) was 57760. For the same compound, the “800 nm Normalized Signal” value ([6]; PRP 2 µM, NADPH 100 µM) was 84928, the “800 nm Normalized Signal” value ([6]; PRP 10 µM, NADPH 0 µM) was 151239 and the “800 nm Normalized Signal” value ([6]; PRP 10 µM, NADPH 100 µM) was 231567. For the same compound, the “800 nm Normalized Signal” value ([7]; PRP 5 µM, NADPH 0 µM) was 1385, the “800 nm Normalized Signal” value ([7]; PRP 5 µM, NADPH 100 µM) was 2194 and the “800 nm Normalized Signal” value ([7]; PRP 50 µM, NADPH 0 µM) was 298. The “800 nm Normalized Signal” value ([7]; PRP 50 µM, NADPH 100 µM) was 1875 and the “labeling of S. mansoni histone deacetylase 8” value ([7]; with or without NADPH) was “not labeled”.
